# Laboratory results reported in patent US10770169B2, “Method of providing a treatment to a subject based on a dynamic pathway map” (THE REGENTS OF THE UNIVERSITY OF CALIFORNIA, priority 2010, dated 2020).
# Like-named read-outs stand apart in the source and are kept apart here.
# System: panel of 55 breast cancer cell lines
# Experiment: Cell growth inhibition assay (Cell Titer Glo, 72 h, 9 doses; GI50, TGI, LC50)
# Format: cell-based, human
# Settings: Homo sapiens, read-out: GI50 (converted)
smiles,measurement,setting,value
Cc1ccc(C(=O)N(CCCN)[C@@H](c2nc3cc(Cl)ccc3c(=O)n2Cc2ccccc2)C(C)C)cc1 [Ispinesib],GI50,"AU565, cell line AU565, censored GI50 values",22.4 nM
same,GI50,"AU565, cell line AU565",22.4 nM
same,GI50,"BT-20, cell line BT20, censored GI50 values",17 nM
same,GI50,"BT-20, cell line BT20",17 nM
same,GI50,"BT-474, cell line BT474, censored GI50 values",51.3 nM
same,GI50,"BT-474, cell line BT474",51.3 nM
same,GI50,"BT-483, cell line BT483, censored GI50 values",0.049 nM
same,GI50,"BT-483, cell line BT483",0.049 nM
same,GI50,"BT-549, cell line BT549, censored GI50 values",46.8 nM
same,GI50,"BT-549, cell line BT549",46.8 nM
same,GI50,"CAMA-1, cell line CAMA1, censored GI50 values",31.6 nM
same,GI50,"CAMA-1, cell line CAMA1",31.6 nM
same,GI50,"HCC38, cell line HCC38, censored GI50 values",46.8 nM
same,GI50,"HCC38, cell line HCC38",46.8 nM
same,GI50,"HCC70, cell line HCC70, censored GI50 values",45.7 nM
same,GI50,"HCC70, cell line HCC70",45.7 nM
same,GI50,"HCC202, cell line HCC202, censored GI50 values",7.59 nM
same,GI50,"HCC202, cell line HCC202",7.59 nM
same,GI50,"HCC1143, cell line HCC1143, censored GI50 values",51.3 nM
same,GI50,"HCC1143, cell line HCC1143",51.3 nM
same,GI50,"HCC1187, cell line HCC1187, censored GI50 values",26.9 nM
same,GI50,"HCC1187, cell line HCC1187",26.9 nM
same,GI50,"HCC1395, cell line HCC1395, censored GI50 values",27.5 nM
same,GI50,"HCC1395, cell line HCC1395",27.5 nM
same,GI50,"HCC1419, cell line HCC1419, censored GI50 values",6760 nM
same,GI50,"HCC1419, cell line HCC1419",6760 nM
same,GI50,"HCC1428, cell line HCC1428, censored GI50 values",4470 nM
same,GI50,"HCC1428, cell line HCC1428",4470 nM
same,GI50,"HCC1500, cell line HCC1500, censored GI50 values",33.9 nM
same,GI50,"HCC1500, cell line HCC1500",33.9 nM
same,GI50,"HCC1806, cell line HCC1806, censored GI50 values",28.8 nM
same,GI50,"HCC1806, cell line HCC1806",28.8 nM
same,GI50,"HCC1937, cell line HCC1937, censored GI50 values",282 nM
same,GI50,"HCC1937, cell line HCC1937",282 nM
same,GI50,"HCC1954, cell line HCC1954, censored GI50 values",30.9 nM
same,GI50,"HCC1954, cell line HCC1954",30.9 nM
same,GI50,"MCF7, cell line MCF7, censored GI50 values",38 nM
same,GI50,"MCF7, cell line MCF7",38 nM
same,GI50,"MDA-MB-134-VI, cell line MDAMB134VI, censored GI50 values",43.7 nM
same,GI50,"MDA-MB-157, cell line MDAMB157, censored GI50 values",31.6 nM
same,GI50,"MDA-MB-175-VII, cell line MDAMB175VII, censored GI50 values",1700 nM
same,GI50,"MDA-MB-231, cell line MDAMB231, censored GI50 values",31.6 nM
same,GI50,"MDA-MB-361, cell line MDAMB361, censored GI50 values",33.9 nM
same,GI50,"MDA-MB-415, cell line MDAMB415, censored GI50 values",75.9 nM
same,GI50,"MDA-MB-436, cell line MDAMB436, censored GI50 values",38.9 nM
same,GI50,"MDA-MB-453, cell line MDAMB453, censored GI50 values",42.7 nM
same,GI50,"MDA-MB-468, cell line MDAMB468, censored GI50 values",19.1 nM
same,GI50,"SK-BR-3, cell line SKBR3, censored GI50 values",33.9 nM
same,GI50,"SUM52PE, cell line SUM52PE, censored GI50 values",28.8 nM
same,GI50,"SUM149PT, cell line SUM149PT, censored GI50 values",33.1 nM
same,GI50,"SUM185PE, cell line SUM185PE, censored GI50 values",110 nM
same,GI50,"SUM225CWN, cell line SUM225CWN, censored GI50 values",105 nM
same,GI50,"SUM1315MO2, cell line SUM1315MO2, censored GI50 values",40.7 nM
same,GI50,"SUM-159-PT, cell line SUM159PT, censored GI50 values",47.9 nM
same,GI50,"T47D, cell line T47D, censored GI50 values",83.2 nM
same,GI50,"UACC-893, cell line UACC893, censored GI50 values",10.5 nM
same,GI50,"ZR-75-1, cell line ZR751, censored GI50 values",89.1 nM
same,GI50,"ZR-75B, cell line ZR75B, censored GI50 values",132 nM
same,GI50,"cell line 600MPE, censored GI50 values",20.9 nM
same,GI50,cell line 600MPE,20.9 nM
same,GI50,"cell line HCC2185, censored GI50 values",29.5 nM
same,GI50,cell line HCC2185,29.5 nM
same,GI50,"cell line HCC3153, censored GI50 values",28.2 nM
same,GI50,cell line HCC3153,28.2 nM
same,GI50,"cell line LY2, censored GI50 values",22.9 nM
same,GI50,cell line LY2,22.9 nM
